Experimental data reported in the supplement of paper PMC4862054.

Legend:
Assay in all cases: normalised viability (% of control), CellTiter-Blue; higher = more viable cells (about 100 = DMSO control)
CAL-148 [1] = settings: incubation time: 72 h
How it was run: (§1)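 Plates were quality-checked by Z'-factor and normalised to vehicle (100) and a positive kill control (0). The underlying assay incubated breast cancer cell lines for 72 h on 384-well plates with compound, then added 2.5 µl CellTiter-Blue for 2 h at 37 °C and read at 560/590 nm. The value is normalised viability at a single listed concentration of the series.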

HCC1599 [2] = settings: incubation time: 72 h
How it was run: as §1

HCC1143 [3] = settings: incubation time: 72 h
How it was run: as §1

MFM-223 [4] = settings: incubation time: 72 h
How it was run: as §1

MDA-MB-468 [5] = settings: incubation time: 72 h
How it was run: as §1

MDA-MB-453 [6] = settings: incubation time: 72 h
How it was run: as §1

CAL-51 [7] = settings: incubation time: 72 h
How it was run: as §1

DU-4475 [8] = settings: incubation time: 72 h
How it was run: as §1

SK-BR-3 [9] = settings: incubation time: 72 h
How it was run: as §1

HCC1937 [10] = settings: incubation time: 72 h
How it was run: as §1

BT-474 [11] = settings: incubation time: 72 h
How it was run: as §1

MDA-MB-231 [12] = settings: incubation time: 72 h
How it was run: as §1

BT-549 = settings: 100 nM; incubation time: 72 h
Description: (§2)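 DSRT, CellTiter-Blue viability, 72 h incubation. Signal is normalised to DMSO and benzethonium chloride controls. Value is the normalised response at dose 3.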

MDA-MB-436 = settings: 100 nM; incubation time: 72 h
Description: as §2

Hs578T = settings: 100 nM; incubation time: 72 h
Description: as §2

CAL-148 [13] = settings: 10 nM; incubation time: 72 h
Description: as §2

HCC1599 [14] = settings: 100 nM; incubation time: 72 h
Description: as §2

HCC1143 [15] = settings: 100 nM; incubation time: 72 h
Description: as §2

MFM-223 [16] = settings: 100 nM; incubation time: 72 h
Description: as §2

MDA-MB-468 [17] = settings: 100 nM; incubation time: 72 h
Description: as §2

MDA-MB-453 [18] = settings: 10 nM; incubation time: 72 h
Description: as §2

CAL-85-1 = settings: 10 nM; incubation time: 72 h
Description: as §2

CAL-51 [19] = settings: 10 nM; incubation time: 72 h
Description: as §2

CAL-120 = settings: 100 nM; incubation time: 72 h
Description: as §2

DU-4475 [20] = settings: 10 nM; incubation time: 72 h
Description: as §2

SK-BR-3 [21] = settings: 100 nM; incubation time: 72 h
Description: as §2

HDQ-P1 = settings: 10 nM; incubation time: 72 h
Description: as §2

HCC1937 [22] = settings: 100 nM; incubation time: 72 h
Description: as §2

BT-474 [23] = settings: 100 nM; incubation time: 72 h
Description: as §2

MDA-MB-231 [24] = settings: 100 nM; incubation time: 72 h
Description: as §2

CO[C@@H]1[C@H](N(C)C(=O)c2ccccc2)C[C@H]2O[C@]1(C)n1c3ccccc3c3c4c(c5c6ccccc6n2c5c31)C(=O)NC4 [Midostaurin]
normalised viability (CAL-148 [1]; 3 nM): 115%
normalised viability (CAL-148 [1]; 30 nM): 105%
normalised viability (CAL-148 [1]; 100 nM): 129%
normalised viability (HCC1599 [2]; 10 nM): 106%
normalised viability (HCC1599 [2]; 1000 nM): 78.8%
normalised viability (HCC1599 [2]; 10000 nM): 72.6%
normalised viability (HCC1143 [3]; 10 nM): 145%
normalised viability (HCC1143 [3]; 1000 nM): 75%
normalised viability (HCC1143 [3]; 10000 nM): 61.3%
normalised viability (MFM-223 [4]; 10 nM): 96.3%
normalised viability (MFM-223 [4]; 1000 nM): 74.4%
normalised viability (MFM-223 [4]; 10000 nM): 64.2%
normalised viability (MDA-MB-468 [5]; 10 nM): 98.5%
normalised viability (MDA-MB-468 [5]; 1000 nM): 46.6%
normalised viability (MDA-MB-468 [5]; 10000 nM): 41.4%
normalised viability (MDA-MB-453 [6]; 3 nM): 108%
normalised viability (MDA-MB-453 [6]; 30 nM): 92.1%
normalised viability (MDA-MB-453 [6]; 100 nM): 87.2%
normalised viability (CAL-51 [7]; 3 nM): 97.5%
normalised viability (CAL-51 [7]; 30 nM): 87.9%
normalised viability (CAL-51 [7]; 100 nM): 82.4%
normalised viability (DU-4475 [8]; 3 nM): 94.7%
normalised viability (DU-4475 [8]; 30 nM): 92.4%
normalised viability (DU-4475 [8]; 100 nM): 101%
normalised viability (SK-BR-3 [9]; 10 nM): 94%
normalised viability (SK-BR-3 [9]; 1000 nM): 77.4%
normalised viability (SK-BR-3 [9]; 10000 nM): 39.5%
normalised viability (HCC1937 [10]; 10 nM): 111%
normalised viability (HCC1937 [10]; 1000 nM): 56.5%
normalised viability (HCC1937 [10]; 10000 nM): 44.9%
normalised viability (BT-474 [11]; 10 nM): 105%
normalised viability (BT-474 [11]; 1000 nM): 91.3%
normalised viability (BT-474 [11]; 10000 nM): 84.3%
normalised viability (MDA-MB-231 [12]; 10 nM): 92.8%
normalised viability (MDA-MB-231 [12]; 1000 nM): 49.1%
normalised viability (MDA-MB-231 [12]; 10000 nM): 42.4%
normalised viability (BT-549): 88.1%
normalised viability (MDA-MB-436): 85.6%
normalised viability (Hs578T): 82.2%
normalised viability (CAL-148 [13]): 107%
normalised viability (HCC1599 [14]): 101%
normalised viability (HCC1143 [15]): 134%
normalised viability (MFM-223 [16]): 108%
normalised viability (MDA-MB-468 [17]): 112%
normalised viability (MDA-MB-453 [18]): 85.7%
normalised viability (CAL-85-1): 103%
normalised viability (CAL-51 [19]): 91.9%
normalised viability (CAL-120): 107%
normalised viability (DU-4475 [20]): 103%
normalised viability (SK-BR-3 [21]): 102%
normalised viability (HDQ-P1): 85.3%
normalised viability (HCC1937 [22]): 82.8%
normalised viability (BT-474 [23]): 114%
normalised viability (MDA-MB-231 [24]): 103%

C=CCn1c(=O)c2cnc(Nc3ccc(N4CCN(C)CC4)cc3)nc2n1-c1cccc(C(C)(C)O)n1 [MK1775]
normalised viability (CAL-148 [1]; 3 nM): 85.1%
normalised viability (CAL-148 [1]; 30 nM): 92.8%
normalised viability (CAL-148 [1]; 100 nM): 81.5%
normalised viability (HCC1599 [2]; 10 nM): 86.4%
normalised viability (HCC1599 [2]; 1000 nM): 59%
normalised viability (HCC1599 [2]; 10000 nM): 45.3%
normalised viability (HCC1143 [3]; 10 nM): 109%
normalised viability (HCC1143 [3]; 1000 nM): 55.7%
normalised viability (HCC1143 [3]; 10000 nM): 23.7%
normalised viability (MFM-223 [4]; 10 nM): 102%
normalised viability (MFM-223 [4]; 1000 nM): 44.3%
normalised viability (MFM-223 [4]; 10000 nM): 40.1%
normalised viability (MDA-MB-468 [5]; 10 nM): 110%
normalised viability (MDA-MB-468 [5]; 1000 nM): 46.3%
normalised viability (MDA-MB-468 [5]; 10000 nM): 10.1%
normalised viability (MDA-MB-453 [6]; 3 nM): 89.6%
normalised viability (MDA-MB-453 [6]; 30 nM): 86.3%
normalised viability (MDA-MB-453 [6]; 100 nM): 88.7%
normalised viability (CAL-51 [7]; 3 nM): 98.9%
normalised viability (CAL-51 [7]; 30 nM): 90.8%
normalised viability (CAL-51 [7]; 100 nM): 87%
normalised viability (DU-4475 [8]; 3 nM): 87.8%
normalised viability (DU-4475 [8]; 30 nM): 98.3%
normalised viability (DU-4475 [8]; 100 nM): 75.7%
normalised viability (SK-BR-3 [9]; 10 nM): 79.8%
normalised viability (SK-BR-3 [9]; 1000 nM): 9.36%
normalised viability (SK-BR-3 [9]; 10000 nM): 10.2%
normalised viability (HCC1937 [10]; 10 nM): 77.7%
normalised viability (HCC1937 [10]; 1000 nM): 34.1%
normalised viability (HCC1937 [10]; 10000 nM): 27.2%
normalised viability (BT-474 [11]; 10 nM): 94%
normalised viability (BT-474 [11]; 1000 nM): 33.9%
normalised viability (BT-474 [11]; 10000 nM): 35.7%
normalised viability (MDA-MB-231 [12]; 10 nM): 84%
normalised viability (MDA-MB-231 [12]; 1000 nM): 26.9%
normalised viability (MDA-MB-231 [12]; 10000 nM): 16.9%
normalised viability (BT-549): 97.4%
normalised viability (MDA-MB-436): 86.3%
normalised viability (Hs578T): 83.2%
normalised viability (CAL-148 [13]): 87.4%
normalised viability (HCC1599 [14]): 99.4%
normalised viability (HCC1143 [15]): 94.8%
normalised viability (MFM-223 [16]): 83.3%
normalised viability (MDA-MB-468 [17]): 95.5%
normalised viability (MDA-MB-453 [18]): 100%
normalised viability (CAL-85-1): 81.4%
normalised viability (CAL-51 [19]): 94.1%
normalised viability (CAL-120): 75.8%
normalised viability (DU-4475 [20]): 109%
normalised viability (SK-BR-3 [21]): 62.1%
normalised viability (HDQ-P1): 114%
normalised viability (HCC1937 [22]): 78.2%
normalised viability (BT-474 [23]): 94.6%
normalised viability (MDA-MB-231 [24]): 88.1%
